Read-outs that look alike come from different tables or passages of the source.
Key:
Fms1 [1] = target: T1, Fms1 (Saccharomyces cerevisiae, UniProt P50264); parameters: made in house; method as in PMID 21067138; details: cited from earlier work
Fms1 [2] = target: T1, Fms1; experiment: Substrate kinetics with recombinant Fms1 (HPLC of reaction products);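 further: recombinant polyamine oxidases incubated with substrate, product amines (putrescine, 1,3-diaminopropane or butane-1,3-diamine) quantified by HPLC after post-column o-phthalaldehyde derivatization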
Procedure: HPLC with post-column o-phthalaldehyde-derivatization was used to determine the concentrations of the reaction products Put and 1,3-diaminopropane (DAP) or butane-1,3-diamine respectively as described in [30]. Fms1 activity was determined essentially as described for human recombinant APAO, but reactions were carried out in 100 mM Glycine-NaOH buffer at pH 9.0 in a water bath at +25°C [29, 30].
The reactions were carried out in 1 triplicate at pH 9.0 in 100 mM Glycine-NaOH at +25°C.
values for N -Ac-MeSpd enantiomers were determined by using substrate concentrations of 25, 50,
for Rac-MeSpd 30 min, (R)-MeSpd 20 min and (S)-MeSpd 40 minutes.
The reactions were carried out in triplicate at pH 9.0 in 100 mM Glycine-NaOH at +25°C.
values for MeSpd enantiomers were determined by using substrate concentrations of 100, 300, 600,
1000, 2000 and 4000 M. Recombinant Fms1 was 3.8 g/reaction and the incubation time 60
incubated for 30 min (half of the reaction time of an ordinary sample). E1 cleavage was monitored
by HPLC by measuring Put formation and E2 cleavage by determining butane-1,3-diamine content.

[3] = test system: amine oxidases in rat liver homogenates; experiment: Degradation in rat liver supernatant; format: in vitro ADME; details: 20 μM MDL 72527, 5 min preincubation
Procedure: A Wistar rat liver was frozen in liquid nitrogen. The liver was homogenized (1+3 w/v) with Teflon potter in buffer containing 25 mM Tris/HCl pH 7.4, 1 mM DTT and 0.1 mM EDTA. Resulting homogenate was centrifuged at 12000×g for 30 min at +4°C. Supernatant was divided into two portions and treated as follows: (A) incubated for 5 min at +37°C in a water bath, (B) supplemented with 20 μM MDL 72527 and incubated for 5 min at +37°C in a water bath to inactivate APAO and SMOX. A 20-μl aliquot of supernatant A or B was added in 100 mM Glycine-NaOH pH 9.5, 5 mM DTT with or without 100 μM of studied drug in a total volume of 180 μl. After 10-min incubation at +37°C, 20 μl of 50% sulphosalicylic acid (SSA) containing 100 μM diaminoheptane (DAH) was added to the reaction mixture. The samples were assayed with HPLC as described in [30].

SMOX [4] = target: T2, SMOX (Homo sapiens, UniProt Q9NWM0); parameters: made in house; method as in PMID 17901051, PMID 16354669; details: cited from earlier work
human recombinant APAO [5] = target: T3, human recombinant APAO (Homo sapiens, UniProt Q6QHF9); details: cited from earlier work
T3 construct: made in house

SMOX [6] = target: T2, SMOX; experiment: Substrate properties with human recombinant SMOX; format: biochemical; parameters: made in house
Description: Thus, developing specific inhibitors of SMOX is of crucial importance. In addition, the use of specific substrates for SMOX and APAO would enable distinguishing between APAO and SMOX enzyme activities in vivo.

SMOX [7] = target: T2, SMOX; experiment: Inhibition of SMOX (Ki, peroxidase-coupled fluorescence, Spm as substrate)
Procedure: Reaction mixtures contained 40 units/ml horseradish peroxidase (Roche), 1 mM homovanillic acid in 100 mM Glycine-NaOH at pH 9.0 supplemented with 40 ng of SMOX. […] Dilutions of fresh H2O2 were used as standard.

human recombinant APAO [8] = target: T3, human recombinant APAO; experiment: Substrate kinetics with human recombinant APAO (HPLC of reaction products); format: biochemical; details: 100 mM Glycine-NaOH pH 9.5, 5 mM DTT
[9] = 1 mM Spm, Glycine-NaOH buffer pH 9.0

T1 sequence (P50264 whole entry): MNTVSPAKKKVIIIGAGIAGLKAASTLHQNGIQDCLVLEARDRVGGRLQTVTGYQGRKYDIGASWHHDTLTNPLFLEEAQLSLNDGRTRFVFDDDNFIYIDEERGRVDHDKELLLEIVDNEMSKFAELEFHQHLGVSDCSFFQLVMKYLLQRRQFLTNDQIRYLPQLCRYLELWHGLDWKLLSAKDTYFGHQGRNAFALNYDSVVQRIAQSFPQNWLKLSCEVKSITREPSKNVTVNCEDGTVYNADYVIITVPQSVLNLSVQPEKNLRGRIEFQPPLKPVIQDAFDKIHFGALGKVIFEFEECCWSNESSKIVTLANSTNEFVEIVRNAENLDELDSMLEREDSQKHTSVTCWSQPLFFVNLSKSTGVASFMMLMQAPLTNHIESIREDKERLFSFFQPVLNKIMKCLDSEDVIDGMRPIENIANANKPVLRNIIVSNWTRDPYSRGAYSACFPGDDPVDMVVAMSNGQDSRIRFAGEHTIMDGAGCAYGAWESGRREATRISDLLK
T2 sequence (Q9NWM0 whole entry): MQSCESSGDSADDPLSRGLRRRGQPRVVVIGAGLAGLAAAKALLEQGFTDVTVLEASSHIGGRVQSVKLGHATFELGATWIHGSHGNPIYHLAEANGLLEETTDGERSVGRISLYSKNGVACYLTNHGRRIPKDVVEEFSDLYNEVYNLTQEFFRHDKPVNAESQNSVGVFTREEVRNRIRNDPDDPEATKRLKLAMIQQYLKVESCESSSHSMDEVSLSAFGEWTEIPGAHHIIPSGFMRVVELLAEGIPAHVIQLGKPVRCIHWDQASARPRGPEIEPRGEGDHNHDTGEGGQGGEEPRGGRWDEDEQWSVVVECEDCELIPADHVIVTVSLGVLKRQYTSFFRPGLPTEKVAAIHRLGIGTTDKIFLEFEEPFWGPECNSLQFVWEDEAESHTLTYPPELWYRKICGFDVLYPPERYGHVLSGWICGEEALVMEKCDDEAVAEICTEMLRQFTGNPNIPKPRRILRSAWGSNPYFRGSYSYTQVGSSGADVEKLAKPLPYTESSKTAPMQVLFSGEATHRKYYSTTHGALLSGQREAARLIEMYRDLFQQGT
T3 sequence (Q6QHF9 whole entry): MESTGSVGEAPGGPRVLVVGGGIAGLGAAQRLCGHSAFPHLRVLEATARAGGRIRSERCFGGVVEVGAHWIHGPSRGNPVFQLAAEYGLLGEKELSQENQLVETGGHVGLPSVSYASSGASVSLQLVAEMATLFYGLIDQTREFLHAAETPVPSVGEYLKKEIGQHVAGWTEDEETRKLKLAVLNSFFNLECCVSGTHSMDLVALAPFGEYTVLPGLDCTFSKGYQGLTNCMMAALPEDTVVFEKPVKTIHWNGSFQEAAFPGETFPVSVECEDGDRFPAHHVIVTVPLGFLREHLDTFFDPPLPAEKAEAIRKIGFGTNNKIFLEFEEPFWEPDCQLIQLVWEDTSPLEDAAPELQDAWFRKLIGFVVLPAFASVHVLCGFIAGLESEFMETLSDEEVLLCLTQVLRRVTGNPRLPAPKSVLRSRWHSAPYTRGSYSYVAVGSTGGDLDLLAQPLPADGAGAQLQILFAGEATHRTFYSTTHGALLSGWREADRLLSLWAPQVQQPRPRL

CC(=O)NCCCNCCCCNCCCN [N^1-AcSpm]
kcat (Fms1 [1]): 15.1 ± 0.4 s⁻¹

NCCCNCCCCNCCCN [Spm, spermine, reference compound]
kcat (Fms1 [1]): 39.0 ± 1.5 s⁻¹
reaction velocity (Fms1 [2]; 1 mM Spm, 100 mM Tris/HCl or 170 mM Bis/Tris buffers pH 9.0): 36.1 ± 0.24 µmol/mg/min
pH of highest reaction velocity (Fms1 [2]; 1 mM Spm, 170 mM Bis/Tris): 9.25
reaction velocity in comparison with rate at the optimum pH (Fms1 [2]; 1 mM Spm, 170 mM Bis/Tris, pH 8.0): ~ 15%
reaction velocity in comparison with rate at the optimum pH (Fms1 [2]; 1 mM Spm, 170 mM Bis/Tris, pH 8.5): 60%
activity of recombinant Fms1 (Fms1 [2]; [9]): 30.9 ± 0.45 µmol/mg/min
kcat (Fms1 [2]; [9]): 30.3 ± 0.44 s⁻¹

C=C=CCNCCCCNCC=C=C [MDL72527]
inhibition of analogue degradation in rat liver supernatant [3]: Complete inhibition

CC(N)CCNCCCCNCCC(C)N [(S,S)-Me2Spm, 2,13-diamino-5,10-diazatetradecane]
Specificity constant ratio SS/RR (Fms1 [2]; Fms1, (S,S)-Me2Spm vs (R,R)-Me2Spm): 3.9
Specificity constant ratio SS/Spm (Fms1 [2]; Fms1, (S,S)-Me2Spm vs Spm): 0.07
Specificity constant ratio SS/RR (SMOX [4]; (S,S)-Me2Spm vs (R,R)-Me2Spm): 454
Specificity constant ratio SS/Spm (SMOX [4]; (S,S)-Me2Spm vs Spm): 2.1
Specificity constant ratio SS/RR (human recombinant APAO [5]; (S,S)-Me2Spm vs (R,R)-Me2Spm): 28
Specificity constant ratio SS/Spm (human recombinant APAO [5]; (S,S)-Me2Spm vs Spm): 7.1

C[C@@H](CCNCCCCN)NCc1ccccc1 [Bn-(S)-MeSpd]
substrate of SMOX (SMOX [6]): not being substrates of SMOX
Ki (SMOX [7]; Ki (best-fit value, noncompetitive inhibition), GraphPad Prism global fit, supplement): 155 µM
Ki (SMOX [7]; Ki, non-competitive fit, 25, 50 or 100 µM Spm, pH 9.0, 37°C): 155 ± 13 µM
Km (human recombinant APAO [8]): 1.6 ± 0.6 µM
Vmax (human recombinant APAO [8]): 0.03 ± 0.00 µmol/min/mg
kcat (human recombinant APAO [8]): 0.03 ± 0.00 s⁻¹

— publication PMC6131205, “Controlling the regioselectivity and stereospecificity of FAD-dependent polyamine oxidases with the use of amine-attached guide molecules as conformational modulators” (Bioscience Reports, 2018)
